Experimental data: the supplement of paper PMC10307832

Tests used:
Assay in all cases: relative viability (nuclei count vs DMSO), 5 days (fraction); higher = more cells survive
XMD8-85 + Decitabine = compound: CN1CCN(CC1)C2=CC(=C(C=C2)NC3=NC=C4C(=N3)N(C5=CC=CC=C5C(=O)N4C)C)OC [XMD8-85] + Nc1ncn([C@H]2C[C@H](O)[C@@H](CO)O2)c(=O)n1 [Decitabine] (partner 2 µM)
Procedure, shortened: (§1)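 Relative viability was taken as the ratio of nuclei in treated wells to nuclei in vehicle wells. Lung cancer cell lines in 1536-well plates received compounds by pin tool one day after seeding, either one drug alone or a fixed anchor-drug dose plus five library-drug doses (not always all listed) in √10 steps. Nuclei were counted on 4× images after 5 days of treatment, and values are medians of duplicate plates.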

XMD8-85 + Vorinostat = compound: CN1CCN(CC1)C2=CC(=C(C=C2)NC3=NC=C4C(=N3)N(C5=CC=CC=C5C(=O)N4C)C)OC [XMD8-85] + O=C(CCCCCCC(=O)Nc1ccccc1)NO [Vorinostat] (partner 1 µM)
Procedure, shortened: as §1

4EGI-1 + Lapatinib = compound: O=C(O)C(Cc1ccccc1[N+](=O)[O-])=NNc1nc(-c2ccc(Cl)c(Cl)c2)cs1 (mixture of isomers) [4EGI-1] + CS(=O)(=O)CCNCc1ccc(-c2ccc3ncnc(Nc4ccc(OCc5cccc(F)c5)c(Cl)c4)c3c2)o1 [Lapatinib] (partner 2 µM)
Procedure, shortened: as §1

4EGI-1 + Alpelisib = compound: O=C(O)C(Cc1ccccc1[N+](=O)[O-])=NNc1nc(-c2ccc(Cl)c(Cl)c2)cs1 (mixture of isomers) [4EGI-1] + Cc1nc(NC(=O)N2CCC[C@H]2C(N)=O)sc1-c1ccnc(C(C)(C)C(F)(F)F)c1 [Alpelisib] (partner 2 µM)
Procedure, shortened: as §1

Row | Cell Line | relative viability (XMD8-85 + Decitabine; first compound 0.08 µM) | relative viability (XMD8-85 + Decitabine; first compound 0.253 µM) | relative viability (XMD8-85 + Decitabine; first compound 0.8 µM) | relative viability (XMD8-85 + Decitabine; first compound 2.53 µM) | relative viability (XMD8-85 + Decitabine; first compound 8 µM) | relative viability (XMD8-85 + Vorinostat; first compound 0.08 µM) | relative viability (XMD8-85 + Vorinostat; first compound 0.253 µM) | relative viability (XMD8-85 + Vorinostat; first compound 0.8 µM) | relative viability (XMD8-85 + Vorinostat; first compound 2.53 µM) | relative viability (XMD8-85 + Vorinostat; first compound 8 µM) | relative viability (4EGI-1 + Lapatinib; first compound 0.5 µM) | relative viability (4EGI-1 + Lapatinib; first compound 1.581 µM) | relative viability (4EGI-1 + Lapatinib; first compound 5 µM) | relative viability (4EGI-1 + Lapatinib; first compound 15.81 µM) | relative viability (4EGI-1 + Lapatinib; first compound 50 µM) | relative viability (4EGI-1 + Alpelisib; first compound 0.5 µM) | relative viability (4EGI-1 + Alpelisib; first compound 1.581 µM) | relative viability (4EGI-1 + Alpelisib; first compound 5 µM) | relative viability (4EGI-1 + Alpelisib; first compound 15.81 µM) | relative viability (4EGI-1 + Alpelisib; first compound 50 µM)
1 | HARA | 0.657 | 0.647 | 0.407 | 0.659 | 0.416 | 0.549 | 0.592 | 0.565 | 0.427 | 0.47 | 0.697 | 0.732 | 0.817 | 0.724 | 0.257 | 0.935 | 0.921 | 0.837 | 0.833 | 0.295
2 | A-427 | 0.601 | 0.596 | 0.546 | 0.573 | 0.539 | 0.89 | 0.866 | 0.911 | 0.865 | 0.659 | 1.11 | 0.728 | 1.06 | 0.997 | 0.6 | 1.04 | 0.968 | 1.07 | 0.991 | 0.759
3 | PC-3 [JPC-3] | 0.93 |  | 0.8 | 1.06 | 0.745 | 0.963 | 0.875 | 0.68 | 0.912 | 0.465 | 0.518 | 0.416 | 0.443 |  | 0.39 | 1.09 | 0.97 | 0.979 |  | 0.884
4 | NCI-H1915 | 0.279 | 0.262 | 0.838 | 0.563 | 0.253 | 0.556 | 0.546 | 0.485 | 0.5 | 0.476 | 0.99 | 0.747 | 0.954 | 1.03 | 0.679 | 1.09 | 0.808 | 0.982 | 1.07 | 0.695
5 | HCC-44 | 0.976 | 0.979 | 0.922 | 0.973 | 0.887 | 1.11 | 1.07 | 1.07 | 1.16 | 1.04 | 0.985 | 0.802 | 0.929 | 0.809 | 0.366 | 0.86 | 0.485 | 0.79 | 0.532 | 0.182
6 | LOU-NH91 | 0.797 | 0.852 | 0.793 | 0.821 | 0.646 | 0.896 | 0.904 | 0.91 | 1.04 | 0.641 | 0.807 |  | 0.822 | 0.787 | 0.552 | 0.814 |  | 0.726 | 0.466 | 0.538
7 | NCI-H1666 | 0.703 | 0.724 |  | 0.692 | 0.68 | 1.13 | 1.03 | 0.996 | 0.947 | 0.92 | 0.743 | 0.616 | 0.653 | 0.526 | 0.229 | 1.08 | 1.07 | 1.15 | 0.403 | 0.212
8 | NCI-H1395 | 0.609 | 0.762 | 0.722 | 0.701 | 0.716 | 0.556 | 0.668 | 0.739 | 0.887 | 0.406 | 0.975 |  | 1.18 | 0.832 | 0.413 | 1.19 |  | 1.52 | 1.07 | 0.685
9 | SK-MES-1 | 0.348 | 0.353 | 0.39 | 0.39 | 0.3 | 0.761 | 1.27 | 1.05 | 1.03 | 0.474 | 0.51 | 0.419 | 0.479 | 0.459 | 0.395 | 0.968 | 0.735 | 0.911 | 0.773 | 0.827
10 | EKVX | 0.536 | 0.32 | 0.33 | 0.61 | 0.328 | 0.631 | 0.8 | 0.851 | 0.91 | 0.626 | 0.222 | 0.17 | 0.184 | 0.204 | 0.18 | 1.12 | 0.85 | 0.971 | 0.648 | 0.826
11 | HOP-62 | 0.235 | 0.199 | 0.186 | 0.228 | 0.236 | 0.605 | 0.673 | 0.622 | 0.598 | 0.231 | 1.06 |  | 1.08 | 0.961 | 0.362 | 1.13 |  | 1.12 | 1.13 | 0.745
12 | NCI-H1734 |  | 0.519 | 0.528 | 0.591 | 0.464 | 0.788 | 0.84 | 0.826 | 0.768 | 0.56 | 1.15 | 0.939 | 1.15 | 0.903 | 0.393 | 0.686 | 0.599 | 0.753 | 0.719 | 0.491
13 | EMC-BAC-2 | 0.873 | 0.961 |  | 1.05 | 0.887 | 0.424 | 0.468 | 0.413 | 0.385 | 0.185 | 1.06 | 0.744 | 0.89 | 0.913 | 0.88 | 0.733 | 0.628 | 0.72 | 0.485 | 0.656
14 | COR-L23 | 0.513 | 0.397 | 0.506 | 0.458 | 0.409 | 0.413 | 0.486 | 0.558 | 0.516 | 0.236 | 1.13 | 0.826 | 0.981 | 0.536 | 0.14 | 0.873 | 0.509 | 0.885 | 0.562 | 0.112
15 | NCI-H460 | 0.442 | 0.506 | 0.503 | 0.566 | 0.396 | 0.53 | 0.786 | 0.672 | 0.766 | 0.146 | 1.09 |  | 0.975 | 0.131 | 0.0327 | 0.511 |  | 0.493 | 0.197 | 0.0546
